For assay [1], the system named is panel of kinases of CAMK family. The experiment in a line: Single dose kinase inhibition profiling (ADP-Glo). In kind it is biochemical. To be noted: single dose of 10 µM. From the text:
The selectivity of kinase inhibitors is commonly evaluating them against a panel of closely related kinases based on the hypothesis that off-target interfaces are more likely to be associated with same/different families of kinases with similar amino acid sequence. So, we evaluated the fraction of kinase targets that are within the same kinase family (CAMK family). […] These kinase selectivity results signify the use of these compounds as potential and selective inhibitors towards MARK4.
Figure 7 Kinase selectivity and tau-phosphorylation assay. Kinase selectivity results of (A) compound 7b, (B) compound 7d, (C) compound 7f. The selected panel of kinases was incubated with 10 µM dose of selected compounds and analyzed for percent activity values. The percent kinase activity was calculated in the compound-containing reactions and plotted in terms of percent kinase activity inhibition. (D) Representative flow cytometry histogram of SH-SY5Y cell fractions stained with phosphorylated anti-tau antibodies, each histogram represents the phosphorylation status of tau under different treatments as mentioned in inset.
In vitro profiling of the twenty five members of CAMK family (CAMK-1 and CAMK-2) of kinases was performed with the help of kinase screening kit by following the manufacturer’s protocols (Promega, Madison, USA). Briefly, add desired concentration of each compound (10 µM) to corresponding well of 384-well assay plate. Consecutively, 2 µl of kinase working stock solution was added to each wells of assay plate. Gently mix the reaction mixture on a plate shaker for 2 minutes, centrifuge the assay plate to bring mixture of reagents to the bottom of the wells. Incubate the plate at room temperature (25 °C) for 10 minutes. […] After the completion of reaction, measure the luminescence using an integration time of 0.5 seconds per well. Using net luminescence of the no-compound control (negative control) reactions to represent 100% kinase activity, the percent kinase activity was calculated in the compound-containing reactions and plotted in terms of percent kinase activity inhibition.
(ADP-Glo first removes unused ATP, then detects ADP through luciferase.)

The next assay has as its target T1, recombinant MARK4 (Homo sapiens, UniProt Q96L34).
T1 construct: made in house; host or cells: bacterial cells (Luria-Bertani broth, IPTG induction)
T1 sequence (Q96L34 1-752): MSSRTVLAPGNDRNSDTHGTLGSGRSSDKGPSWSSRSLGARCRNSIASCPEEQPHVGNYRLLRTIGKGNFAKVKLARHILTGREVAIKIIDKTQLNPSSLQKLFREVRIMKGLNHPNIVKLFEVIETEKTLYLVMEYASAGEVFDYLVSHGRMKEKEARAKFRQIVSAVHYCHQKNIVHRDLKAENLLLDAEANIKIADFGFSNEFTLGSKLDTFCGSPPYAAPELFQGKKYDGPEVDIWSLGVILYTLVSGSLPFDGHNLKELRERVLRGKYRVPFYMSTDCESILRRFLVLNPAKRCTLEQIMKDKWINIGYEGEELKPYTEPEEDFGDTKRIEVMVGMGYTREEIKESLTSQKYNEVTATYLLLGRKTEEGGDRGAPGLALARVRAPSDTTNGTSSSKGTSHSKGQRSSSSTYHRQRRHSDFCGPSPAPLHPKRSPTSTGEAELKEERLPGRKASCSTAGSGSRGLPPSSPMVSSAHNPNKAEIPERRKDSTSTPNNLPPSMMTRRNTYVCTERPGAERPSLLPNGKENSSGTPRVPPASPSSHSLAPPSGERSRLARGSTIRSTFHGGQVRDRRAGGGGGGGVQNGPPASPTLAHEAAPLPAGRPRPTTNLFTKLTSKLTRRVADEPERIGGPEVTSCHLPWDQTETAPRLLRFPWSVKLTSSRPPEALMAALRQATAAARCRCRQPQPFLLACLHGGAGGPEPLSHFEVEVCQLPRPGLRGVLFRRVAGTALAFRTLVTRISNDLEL
The experiment in a line: Isothermal titration calorimetry. The format is binding. To be noted: for Kd: read-out: Ka (converted); for ITC binding in words: at lower stoichiometry, at high concentration they precipitate with MARK4. An excerpt:
In order to measure the actual binding affinity and stoichiometry of selected compounds with the recombinant MARK4, isothermal titration calorimetry (ITC) has been carried out. Negative heat impulses in the upper panel of each isotherm indicate exothermic nature of binding. The amount of heat produced as a result of each injection helps to deliver the molar ratio of studied compound to that of MARK4. Thermodynamic parameters associated with binding of MARK4-compounds (Ka, binding constant and ΔH, enthalpy change) are shown in Table 1.
Figure 5 ITC measurement showing the titration of selected acridone derivatives with recombinant MARK4. (Top) Raw data plot of heat produced against time for the titration of 1000–1500 µM (A) compound 7b, (B) compound 7d, (C) compound 7f, into 20–25 µM MARK4. (Bottom) Corresponding binding isotherm obtained after integration of peak area and normalization to yield a plot of molar enthalpy change against each compound-MARK4 ratio.
ITC experiments were performed on a VP-ITC microcalorimeter (MicroCal, Inc. GE, MicroCal, USA) by following our previously published protocols[41],[47]. For sample preparation, recombinant MARK4 was extensively dialyzed in 20 mM Tris buffer, pH 8.5 and the working solutions of acridone derivatives were prepared in last dialyzing buffer. The titration data so obtained was analyzed with the help of MicroCal Origin 7.0 software provided with the instrument. The thermodynamic parameters of binding such as association constant (Ka), stoichiometry of binding (n), and enthalpy change (ΔH) were determined by fitting the binding isotherm into the ‘one-set of sites’ binding model.

Structures are written as SMILES.

With `Cc1ccc2c(c1)c(=O)c1ccccc1n2CC(=O)NCc1ccccc1` [Compound 7b, N-benzyl-2-(2-methyl-9-oxoacridin-10(9H)-yl)acetamide], in assay [1], the within-family kinase selectivity entry is reported as “more strongly inhibits MARK4 as compared to other kinases of same family”. The Kd on recombinant MARK4 (from ITC, single-site fitting) is 15.6 µM. In the case of `COC(=O)Cn1c2ccccc2c(=O)c2cc(C)ccc21` [Compound 5, Methyl 2-(2-methyl-9-oxoacridin-10(9H)-yl)acetate], on recombinant MARK4, the “ITC binding in words” value was “do not show significant binding”. For the molecule `COc1ccc(CNC(=O)Cn2c3ccccc3c(=O)c3cc(C)ccc32)cc1` [Compound 7d, N-(4-methoxybenzyl)-2-(2-methyl-9-oxoacridin-10(9H)-yl)acetamide], the within-family kinase selectivity entry in assay [1] is listed as “more strongly inhibits MARK4 as compared to other kinases of same family”. Also, the Kd at recombinant MARK4 (from ITC, single-site fitting) is 15.8 µM.

On to `COc1ccccc1NC(=O)Cn1c2ccccc2c(=O)c2cc(C)ccc21` [Compound 7h, N-(2-methoxyphenyl)-2-(2-methyl-9-oxoacridin-10(9H)-yl)acetamide], for which the “ITC binding in words” value at recombinant MARK4 is reported as “do not show significant binding”. For `Cc1ccc(NC(=O)Cn2c3ccccc3c(=O)c3cc(C)ccc32)cc1` [Compound 7f, 2-(2-Methyl-9-oxoacridin-10(9H)-yl)-N-(p-tolyl)acetamide], the within-family kinase selectivity entry in assay [1] is “more strongly inhibits MARK4 as compared to other kinases of same family”. Further, at recombinant MARK4 (from ITC, single-site fitting), the ΔH was −3.01 × 10^4 ± 590.10 cal/mol and the Kd is 7.41 µM.

These data come from publication PMC6368574, “Probing the Inhibition of Microtubule Affinity Regulating Kinase 4 by N-Substituted Acridones” (Scientific Reports, 2019).
